Measured values published in publication PMC12722964, “Immunogenicity risk assessment of peptide-related impurities identified in generic teriparatide products” (Frontiers in Immunology, 2025).
Each block holds one substance with its values, some of them ahead of it. Ends that are not written are not given here.

Assays:
HLA-DRB1*0101 = biological target: T1, HLA-DRB1*0101 (Homo sapiens, UniProt P01903+P01911, A100R/D57E/F55L/F60I/F76Y/I96L/L162R/M171V/P40L/Q125E/R42F/V115G/Y59C); test: Class II HLA binding assay; settings: Figure 6; shortened peptides of Table 3; category by IC50; read-out: HLA binding affinity category, DRB1*0101
T1 construct: incubated overnight to equilibrium with a soluble HLA-DR molecule; purchased Benaroya Research Institute, Seattle, WA, USA
Method: (§1) Class II HLA binding assays used in these studies measure the binding affinity of a target peptide to HLA-DRB1*0101, HLA-DRB1*0301, HLA-DRB1*0401, HLA-DRB1*0701, HLA-DRB1*0901, HLA-DRB1*1101, HLA-DRB1*1301, and HLA-DRB1*1501. The HLA binding assay was originally described by Steere et al. ([21]) and adapted by EpiVax ([22], [23]). Briefly, unlabeled test peptides were incubated overnight to equilibrium with a soluble HLA-DR molecule (Benaroya Research Institute, Seattle, WA, USA) and a biotinylated, allele-specific competitor peptide of known binding affinity. The binding reaction was then neutralized with a buffered pH change, and the peptide-HLA complexes were transferred to a 96-well plate coated with a pan-HLA-DR antibody, clone L243 (BioLegend, San Diego, CA, United States), and incubated overnight. The following day, plates were resolved with the addition of europium-labeled streptavidin (Perkin-Elmer, Waltham, MA, USA). An indirect measure of binding was determined by time-resolved fluorescence. Each peptide was evaluated in triplicate over a range of seven concentrations. The percent inhibition values for each experimental peptide across this concentration range were used to calculate an IC50, the concentration at which the peptide inhibits 50% of the labeled competitor peptide.
(§2) Following the in silico analysis, epitope binding predictions by EpiMatrix were evaluated in vitro by measuring the binding affinity of each impurity peptide relative to the corresponding N- or C-terminal portion of the TPT API, in vitro. The class II HLA-DRB1 binding assay was adapted from an assay originally described by Steere et al. ([21]) that provides an indirect measurement of peptide-HLA affinity. Class II HLA binding peptides typically range in length from 12–20 amino acids; however, the core HLA binding region is nine amino acids. The class II HLA binding groove is open-ended, and the additional flanking residues on either end of the core binding motif stabilize the peptide: HLA binding interaction. Targeted binding motifs were properly centered within the shorter length peptides synthesized for these binding studies (Table 3).

HLA-DRB1*0301 = biological target: T2, HLA-DRB1*0301 (Homo sapiens, UniProt P01903+P01911, A100K/A102G/A103R/A169T/F55Y/I96L/K41T/L162R/M171V/P40S/Q125H/Q178H/Q39Y/R42S/S66N/T106N/T262R/W38E/Y61H); test: Class II HLA binding assay; settings: Figure 6; shortened peptides of Table 3; category by IC50; read-out: HLA binding affinity category, DRB1*0301
T2 construct: incubated overnight to equilibrium with a soluble HLA-DR molecule; purchased Benaroya Research Institute, Seattle, WA, USA
Method: as §1, §2

HLA-DRB1*0401 = biological target: T3, HLA-DRB1*0401 (Homo sapiens, UniProt P01903+P01911, A100K/A169T/F76Y/I96L/K127E/L162R/M171V/N62H/P40V/Q125Y/R42H/S133A/S149N/S66Y/V115G/V209L/W38E); test: Class II HLA binding assay; settings: Figure 6; shortened peptides of Table 3; category by IC50; read-out: HLA binding affinity category, DRB1*0401
T3 construct: incubated overnight to equilibrium with a soluble HLA-DR molecule; purchased Benaroya Research Institute, Seattle, WA, USA
Method: as §1, §2

HLA-DRB1*0701 = HLA-DRB1*0701 (Homo sapiens, UniProt P01903+P01911, A100R/A102G/A103Q/D57E/D86V/E43K/F76Y/K127E/L162R/M171V/P40G/Q125H/Q99D/R33Q/R42Y/R54Q/S133A/S66F/T210M/V115G/Y107V/Y59L/Y89S); test: Class II HLA binding assay; settings: Figure 6; shortened peptides of Table 3; category by IC50; read-out: HLA binding affinity category, DRB1*0701
Method: as §1, §2

HLA-DRB1*0901 = HLA-DRB1*0901 (Homo sapiens, UniProt P01903+P01911, A100R/A103E/D57H/D86V/F55Y/F60I/F76Y/I96F/K127E/L162R/M171V/P40D/Q125H/Q99R/R33Q/R42F/S133A/S66N/T210M/V115G/W38K/Y107V/Y59G/Y89S); test: Class II HLA binding assay; settings: Figure 6; shortened peptides of Table 3; category by IC50; read-out: HLA binding affinity category, DRB1*0901
Method: as §1, §2

HLA-DRB1*1101 = HLA-DRB1*1101 (Homo sapiens, UniProt P01903+P01911, A100R/A169T/A87E/I96F/K41T/L162R/M171V/P40S/Q125H/Q178H/Q39Y/Q99D/R42S/S66Y/T262R/V115G/W38E); test: Class II HLA binding assay; settings: Figure 6; shortened peptides of Table 3; category by IC50; read-out: HLA binding affinity category, DRB1*1101
Method: as §1, §2

HLA-DRB1*1301 = HLA-DRB1*1301 (Homo sapiens, UniProt P01903+P01911, A100E/A169T/K41T/L162R/M171V/P40S/Q125H/Q178H/Q39Y/Q99D/R42S/S66N/T262R/W38E/Y61H); test: Class II HLA binding assay; settings: Figure 6; shortened peptides of Table 3; category by IC50; read-out: HLA binding affinity category, DRB1*1301
Method: as §1, §2

HLA-DRB1*1501 = biological target: T4, HLA-DRB1*1501 (Homo sapiens, UniProt P01903+P01911); test: Class II HLA binding assay; settings: Figure 6; shortened peptides of Table 3; category by IC50; read-out: HLA binding affinity category, DRB1*1501
T4 construct: incubated overnight to equilibrium with a soluble HLA-DR molecule; purchased Benaroya Research Institute, Seattle, WA, USA
Method: as §1, §2

[1] = system: eight class II Supertype Alleles (HLA-DRB1); test: Class II HLA binding assay, summary over the panel of eight alleles; set-up: species or system human
Method: as §1
as §2, with “Targeted binding motifs were properly centered within the shorter length peptides synthesized for these binding studies (Table 3).” left out

[2] = Overall risk based on in silico and in vitro results; settings: EpiMatrix and JanusMatrix scores compared with naïve donor T-cell assay
Text: Table 4 Overall risk based on in silico and in vitro results. | column: Overall risk

[3] = human, in vivo; cited from earlier work
Text: Teriparatide (TPT), sold under the brand name Forteo®, is a 34-amino acid peptide drug produced by recombinant DNA (rDNA) technology. Synthetic peptide versions of the drug have recently been approved for the generic drug market. TPT consists of the biologically active N-terminal 34 amino acids of human parathyroid hormone (PTH) (Figure 1) and is approved in the USA for the treatment of postmenopausal osteoporosis in patients at high risk of bone fracture. Since TPT’s sequence is identical to that of the N-terminus of PTH, the development of antibodies that cross-react with the endogenous hor ... || TPT has a history of having low immunogenicity in the clinic, with only 2.8% of treated patients developing antidrug antibodies after 12 months of treatment. Consistent with this, TPT induced IFN-γ production by responding T cells in fewer than 20% of donor cell preparations ex vivo. However, because different impurities can arise from different methods of peptide synthesis and production, it is important to understand whether any peptide-related impurities could contribute to the immunogenicity risk of generic TPT. Here, we performed an immunogenicity risk assessment for several peptide-relat ...

B cells = system: B cells; set-up: method as in 2 sources, one per row (each row's own in cited_ref): ref Howard et al. ([38]) ||| ref [37] = [37]; 37 Howard KE . ( 2025 ). Alternative models: from humanized mice to microphysiological systems and beyond , in: Scientific and Regulatory Considerations for Assessment of Immunogenicity Risk for Gener; settings: cited from earlier work

HLA-DRB1*1101, sequence (P01903 26-254 limits assumed, other chains not shown): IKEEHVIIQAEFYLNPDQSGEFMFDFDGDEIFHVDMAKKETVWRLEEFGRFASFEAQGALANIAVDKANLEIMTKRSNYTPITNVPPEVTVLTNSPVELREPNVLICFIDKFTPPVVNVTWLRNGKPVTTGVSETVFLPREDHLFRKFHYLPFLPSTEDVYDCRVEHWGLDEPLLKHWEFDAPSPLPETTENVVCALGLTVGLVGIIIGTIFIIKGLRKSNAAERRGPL

IC50 (HLA-DRB1*0101): > 100 µM
IC50 (HLA-DRB1*0301): > 100 µM
IC50 (HLA-DRB1*0401): > 100 µM
IC50 (HLA-DRB1*0701): > 100 µM
IC50 (HLA-DRB1*0901): > 100 µM
IC50 (HLA-DRB1*1101): > 100 µM
IC50 (HLA-DRB1*1301): > 100 µM
IC50 (HLA-DRB1*1501): > 100 µM
Substance: MERVEWLRK(Ac)KLQDVHNF [LYS-AC26_TPT (18-34)]

IC50 (HLA-DRB1*0101): > 100 µM
IC50 (HLA-DRB1*0301): > 100 µM
IC50 (HLA-DRB1*0401): > 100 µM
IC50 (HLA-DRB1*0701): > 100 µM
IC50 (HLA-DRB1*0901): > 100 µM
IC50 (HLA-DRB1*1101): 0.1 to 1 µM
IC50 (HLA-DRB1*1301): 1 to 10 µM
IC50 (HLA-DRB1*1501): ≥ 100 µM
number of the eight class II Supertype Alleles bound ([1]; of eight alleles evaluated, negligible to high affinity counted as bound): three
Substance: MERVEWLRKKLQDVHNF-OH [API_TPT (18-34) C-term]

IC50 (HLA-DRB1*0101): > 100 µM
IC50 (HLA-DRB1*0301): > 100 µM
IC50 (HLA-DRB1*0401): > 100 µM
IC50 (HLA-DRB1*0701): > 100 µM
IC50 (HLA-DRB1*0901): > 100 µM
IC50 (HLA-DRB1*1101): 1 to 10 µM
IC50 (HLA-DRB1*1301): 0.1 to 1 µM
IC50 (HLA-DRB1*1501): ≥ 100 µM
Substance: MERVEWLRKKQDVHNF [DES-LEU28_TPT (18-33)]

classification in the HLA binding assays ([1]; shorter peptide with the modification centered): nonbinder
Overall risk [2]: High
Substance: SVSEIQLMHNLGKHLNSMERVEWLR(K-Ac)KLQDVHNF [LYS-AC26_TERIPARATIDE, observed teriparatide impurity, Lys26 acetylated]

Overall risk [2]: Low
Substance: SVSEIQLMHNLGKHLNSMERVEWLRKKLQDVHNF [TERIPARATIDE, teriparatide]
treated patients developing antidrug antibodies (ADA) [3]: 2.8%
immunogenicity (as measured by activation of B cells) (B cells; at multiple doses, in contrast to SCT, ref Howard et al. ([38])): lower immunogenicity

Overall risk [2]: Low
Substance: SVSEIQLMHNLGKHLNSMERVEWLRKK–QDVHNF [DES-LEU28_TERIPARATIDE, observed teriparatide impurity, deletion of Leu28]

Overall risk [2]: High
Substance: SVSEIQLMHNLGK–LNSMERVEWLRKKLQDVHNF [DES-HIS14_TERIPARATIDE, observed teriparatide impurity, deletion of His14]

Overall risk [2]: High
Substance: SVSEIQLMHNLG–HLNSMERVEWLRKKLQDVHNF [DES-LYS13_TERIPARATIDE, observed teriparatide impurity, deletion of Lys13]

Substance: SVSEIQLMHNLLGKHLNSMERVEWLRKKLQDVHNF [ENDO-LEU11_TERIPARATIDE, theoretical teriparatide impurity predicted by WhIM, duplication of Leu11]
Overall risk [2]: High

Overall risk [2]: High
Substance: SVSEIQLMHNL–KHLNSMERVEWLRKKLQDVHNF [DES-GLY12_TERIPARATIDE, theoretical teriparatide impurity predicted by WhIM, deletion of Gly12]

Overall risk [2]: High
Substance: SVSEIQLMHN–GKHLNSMERVEWLRKKLQDVHNF [DES-LEU11_TERIPARATIDE, observed teriparatide impurity, deletion of Leu11]

Overall risk [2]: High
Substance: SVSEIQLM–NLGKHLNSMERVEWLRKKLQDVHNF [DES-HIS9_TERIPARATIDE, observed teriparatide impurity, deletion of His9]

binding affinity compared to the corresponding region of the API ([1]; impurity peptides alongside N-term or C-term TPT API peptide): decreased or equivalent binding affinity
Overall risk [2]: Medium
Substance: SVSEIQ–MHNLGKHLNSMERVEWLRKKLQDVHNF [DES-LEU7_TERIPARATIDE, observed teriparatide impurity, deletion of Leu7]

Substance: salmon calcitonin [SCT]
long-term memory B cells and plasma cells (B cells; SCT-treated mice compared to TPT, ref [37]): Increased numbers
